Assay results reported in US11344498B2, “Compositions and methods for on-demand high-efficiency triggerable anesthesia” (priority 2015, dated 2022).
Read-outs that look alike come from different tables or passages of the source.

Experiments:
[1] = Procedure: Animals were anesthetized with isoflurane-oxygen and injected with 50 μL of 10 mg/mL sulforhodamine B PBS solution at the sciatic nerve co-injected with or without 50 μL of 50 μg/mL DMED. […] The supernatant was collected and methanol was added at a 1:1 vol ratio. […] The concentration of sulforhodamine B was analyzed by fluorescence (excitation/emission: 560/580 nm).
Liposomal pharmacokinetics studies were performed by co-injecting 200 μL of Lipo-PS-Srho with 200 μL of Lipo or Lipo-DMED at the sciatic nerve. At predetermined time points (30 min, 3 h, 7 h and 10 h), blood was harvested by tail-bleeding.

sciatic nerve = experiment: Motor nerve block, weight-bearing test (TTX, ultrasound, microbubbles); settings: rat, in vivo
[2] = tested on: sciatic nerves and adjacent tissues; settings: rat, in vivo

With `Cc1cccc([C@H](C)c2cnc[nH]2)c1C` [DMED, (S)-4-[1-(2,3-Dimethylphenyl)ethyl]-3H-imidazole] the “decrease of peak Srho plasma concentration” value ([1]; rat, in vivo) was 27.5% and the “time to peak Srho plasma level” value ([1]; rat, in vivo) was 60 min.

In the case of `CCN(CC)c1ccc2c(-c3ccc(S(=O)(=O)O)cc3S(=O)(=O)[O-])c3ccc(=[N+](CC)CC)cc-3oc2c1` [Srho, sulforhodamine B], the “time to peak Srho plasma level” value ([1]; free Srho without DMED) was 30 min.

With `N=C1N[C@@H](O)[C@H]2[C@@H]3OC4(O)OC(C(O)[C@@]2(N1)[C@@H]4O)[C@]3(O)CO` (stereo partly drawn) [TTX, Tetrodotoxin] the “median duration of motor nerve block” value (sciatic nerve) was 0 min, the inflammation score [2] was 1 and the myotoxicity score [2] was 0.
